The results in this text go back to patent publication US10137122B2, “Kinase inhibitors and methods of use thereof” (priority 2012, dated 2018).

Like-named read-outs stand apart in the source and are kept apart here.

Experiment [1] relates to TCF/LEF reporter in HEK293-pBARL cells. Kind of experiment: cells. As to conditions: Homo sapiens.
Procedure: (§1) HEK293-pBARL cells were derived from HEK293 cells and they stably expressed a firefly-luciferase reporter gene driven by a promoter containing 12 copies of TCF/LEF binding sequences. These cells were maintained in DMEM and supplemented with 10% FBS and 1% penicillin-streptomycin (Invitrogen). Reporter gene assays were conducted in anti-biotic free media. […] These cells also contained a renilla-luciferase reporter gene driven by the ubiquitous EF1α promoter as a control. HEK293-pBarl reporter cell lines were seeded into 384-well culture plates (Corning) at 6000 cells/well. 24 hours after plating, cells were treated overnight with relevant compounds and assayed using DualGlo assay kit (Promega). Luminescent intensities were read by EnVision (PerkinElmer, Waltham, Mass.). Firefly luciferase intensity is normalized by renilla luciferase intensity.
(§2) Cells were cultured in 384 well plates to appropriate density (40 μl total plating volume). 24 hours after plating, cells were treated with 100 nl compounds. 24 hours after incubation with compounds (48 hours after plating), assay reagents were prepared by mixing Luciferase Assay solution with Luciferase substrate and Stop & Glo solution to Stop & Glo substrate (extra reagents can be aliquoted and frozen for future use and are stable for at least one freeze/thaw cycle). […] The plate was spun down and 10 minutes were allowed for signal stabilization. Luciferase signal on the Perkin Elmer EnVision using the following parameters: Distance between plate & detector (mm)=0.2; Measurement time(s)=0.1; Glow (CT2) correction factor=0. Once the initial data is secure, a volume of Stop & Glo was added equal to each well equal to the volume of Luciferase reagent added above (If 10 μl Luciferase Reagent was added, 10 μl Stop & Glo was also added). The plate was spun down and 10 minutes were allowed for signal stabilization. The plate was read on the EnVision using the same parameters detailed above.
The test system of experiment [2] is phospho-Tau (Ser199) in SH-SY5Y cells. As to the kind of experiment: Tau phosphorylation assay (phospho-Tau Ser199 ELISA). Format: cell-based, human. As to conditions: read-out: p-Tau Inhibition ELISA EC50 SH-SY5Y. On the technique in general: ELISA stands for enzyme-linked immunosorbent assay.
Procedure: Tau Phosphorylation and Total Tau Assay
SH-SY5Y cells were maintained in DMEM supplemented with 10% heat-inactivated FBS and 1% penicillin-streptomycin (Invitrogen) unless otherwise stated. ELISA kits for phospho-Tau (Ser199) and total Tau detection were purchased from Invitrogen (KHB0041, and KHB7041 respectively). Briefly, SH-SY5Y cells were seeded at 50,000 cells/200 μL/well in 96 well plates and after overnight incubation, treated with various doses of chemical compounds at 0.2 μL/well. The next day cells were washed with PBS twice before being lysed in 100 μL Lysis buffer/well. 50 μL of cell lysate of each sample was transferred to an ELISA vial coated with the capture antibody, and the mixture was incubated at room temperature for 2 hours, before the supernatant was aspired, and each vial washed four times. 100 μL of detection antibody was then added to each well, incubated for 1 hour, and then washed four times. […] Data were scaled using the positive and neutral controls and fitted for IC50.
A standard protocol using an immunoassay kit to quantify total Tau protein and phospho-Tau (Ser199) protein in SH-SY5Y human neuroblastoma cells was employed. Human Tau (Total) ELISA kit (#KHB0041) and human phosphor-Tau (Ser199) ELISA kit were purchased from Invitrogen (#KHB7041)
50,000 cells were seeded in 200 μl per well in cell culture media (250,000 cells/ml). Cells were incubated overnight @37° C. Cells were induced with appropriate doses of inhibitors and incubated for approximately 24 hrs @37° C. Cell lysates were harvested by washing cells once with cold PBS and adding 100 μl cold lysis buffer and pipette up and down vigorously. Lysate was transferred to 96 well PCR plate and centrifuged at 4,000 rpm for 20 minutes at 4° C.
Well strips were warmed and inserted into the frame. 100μ of standard diluent buffer were loaded into ZERO wells, and 100 ul of each standard concentrations (both total Tau and pTau) were loaded into wells in duplicate. Samples were loaded to each well that would be analyzed for total Tau, 85 μl standard diluent buffer and 15 μl cell lysate were added. To each well that will be analyzed for pTau (Ser199) 50 μl standard diluent buffer+50 μl cell lysate were added. Plates were tapped gently on the side to mix. Certain wells were left empty for chromogen blank. Plates were covered and incubated for 2 hours at room temperature. Wells were aspirated 4 times (400 μl diluted wash buffer, left for 30 seconds, aspirated all wells; alternatively used automated plate washer and programmed in a 30 second hold between each cycle). 100 μl of detection antibody solution were added to each well except chromogen blanks. Anti-total Tau was added to wells being analyzed for total Tau, anti-pTau (Ser199) was added to wells being analyzed for pTau (Ser199), and plates were tapped gently on the side to mix. Plates were covered and incubated for 1 hour at room temperature, then wells were aspirated and washed 4 times as described above. 100 μl of anti-rabbit IgG HRP working solution (prepared ahead) were added to each well except chromogen blanks, and plates were covered and incubated for 30 minutes at room temperature, then wells were aspirated and washed 4 times as described above. 100 μl of stabilized chromogen were added to each well (the liquid turned blue). Plates were incubates for 30 minutes at room temperature in the dark, then 100 μl of stop solution were added to each well, and plates were tapped gently on the side to mix. Absorbance of each well was read at 450 nm (within 2 hours of adding stop solution).
Experiment [3] relates to β-catenin nuclear translocation in U2-OS cells. As to the kind of experiment: β-Catenin nuclear localization assay. It counts as cell-based. The conditions noted are these: read-out: beta-Catenin translocation EC50.
Procedure: β-Catenin Nuclear Localization Assay
U2-OS cells stably expressing two complimentary β-galactosidase fragments (one part on β-Catenin and the other constitutively expressed in the cell nucleus) were maintained in DMEM F12 supplemented with 10% FBS. When β-catenin translocates to the nucleus, the complimentary fragments form a complete β-galactosidase, the amount of which is then quantified by β-galactosidase activity (DiscoveRx). Cells were seeded in a 384-well CulturPlate (Perkin Elmer, Boston, Mass.) with 10,000 per well in 20 μL DMEM F12 containing 10% FCS, 100 U/ml penicillin and 100 μg/mL streptomycin. After overnight incubation at 37° C., cells were stimulated with 100 nL test compound/well and then returned to the incubator for 6 h. Cells were disrupted using 12 μL substrate-containing lysis buffer from the PathHunter Detection Kit in the formulation specified by the supplier (DiscoveRx). Plates were incubated in the dark for 1 h at room temperature before measurement of β-galactosidase activity (luminescence) on an EnVision plate reader (PerkinElmer, Waltham, Mass.).
A further experiment concerns the target CDK5/p25 (Homo sapiens (Human), UniProt Q00535).
Experiment [4] concerns TCF/LEF reporter in HEK293-pBARL cells. As to conditions: read-out: TCF/LEF EC50.
Procedure: as §1, §2
[5] abbreviates: HEK293, read-out: TCF/LEF EC50 (μM).
[6] abbreviates: HEK293, read-out: TCF/LEF EC50 (μM), HEK293 reporter cells.

Chain of CDK5/p25 (Q00535 whole entry, species assumed): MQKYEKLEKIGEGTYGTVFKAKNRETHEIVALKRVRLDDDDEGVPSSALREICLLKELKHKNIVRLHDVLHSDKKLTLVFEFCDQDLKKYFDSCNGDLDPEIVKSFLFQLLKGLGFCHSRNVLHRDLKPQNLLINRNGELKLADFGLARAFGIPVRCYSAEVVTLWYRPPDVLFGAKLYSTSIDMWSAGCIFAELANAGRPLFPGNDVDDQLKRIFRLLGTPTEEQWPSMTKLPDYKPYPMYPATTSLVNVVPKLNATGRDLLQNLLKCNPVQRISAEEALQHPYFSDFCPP
Chain of CDK5/p25 (Q15078 99-307 partner, species assumed): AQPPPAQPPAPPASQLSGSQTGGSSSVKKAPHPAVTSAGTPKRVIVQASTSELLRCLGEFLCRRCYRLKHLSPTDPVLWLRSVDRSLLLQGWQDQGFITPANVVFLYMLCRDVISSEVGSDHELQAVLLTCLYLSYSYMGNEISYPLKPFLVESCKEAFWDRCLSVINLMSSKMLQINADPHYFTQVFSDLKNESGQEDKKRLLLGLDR
Procedure for CDK5/p25: Biochemical characterization of these synthesized compounds were assayed against GSK3β and CDK5/p25, with CDK5/p25 serving as a counter target of GSK3β selectivity. […] The effects of these compounds on survival of SH-SY5Y pathophysiology cells were also monitored.

Regarding `COc1ccccc1C1C2=C(CC(C)(C)CC2=O)Nc2n[nH]c(C)c21` (racemic) [Compound 20, 4-(2-methoxyphenyl)-3,7,7-trimethyl-6,7,8,9-tetrahydro-1H-pyrazolo[3,4-b]quinolin-5(4H)-one], the EC50 amounted to 17.9 µM in experiment [1] (setting [5]) and 9.14 µM in experiment [2] (Homo sapiens, SH-SY5Y).

With `COc1ccccc1C1C2=C(CC(C)(C)CC2=O)Nc2n[nH]c(C(F)(F)F)c21` (racemic) [Compound 53, 4-(2-methoxyphenyl)-7,7-dimethyl-3-(trifluoromethyl)-6,7,8,9-tetrahydro-2H-pyrazolo[3,4-b]quinolin-5(4H)-one], the EC50 stood at 16.9 µM in experiment [1] (setting [6]) and 14 µM in experiment [3] (Homo sapiens, U2OS).

Turning to `CCC1(c2ccccc2)C2=C(CC(C)(C)CC2=O)Nc2n[nH]c(C)c21` (racemic) [Compound 89, 9-ethyl-1,6,6-trimethyl-9-phenyl-5,6,7,9-tetrahydro-2H-pyrazolo[3,4-b]quinolin-8(4H)-one], the EC50 in experiment [2] (Homo sapiens, SH-SY5Y) is 22.2 µM.

`Cc1[nH]nc2c1[C@H](c1ccccc1C(F)(F)F)C1=C(CC(C)(C)CC1=O)N2` (stereo in doubt) [Compound 28, 3,7,7-trimethyl-4-(2-(trifluoromethyl)phenyl)-6,7,8,9-tetrahydro-2H-pyrazolo[3,4-b]quinolin-5(4H)-one]: the EC50 in experiment [1] (setting [5]) is 4.8 µM; in experiment [3] (Homo sapiens, U2OS), 6.32 µM; in experiment [2] (Homo sapiens, SH-SY5Y), 1.8 µM.

Consider `Cc1[nH]nc2c1[C@@H](c1ccccc1C(F)(F)F)C1=C(CC(C)(C)CC1=O)N2` (stereo in doubt) [Compound 29, 3,7,7-trimethyl-4-(2-(trifluoromethyl)phenyl)-6,7,8,9-tetrahydro-2H-pyrazolo[3,4-b]quinolin-5(4H)-one], for which the EC50 in experiment [1] (setting [5]) is more than 25 µM; in experiment [3] (Homo sapiens, U2OS) it was more than 50 µM; in experiment [2] (Homo sapiens, SH-SY5Y) it was more than 30 µM.

With `CC1(C)CC(=O)C2=C(C1)Nc1n[nH]c(C(F)(F)F)c1[C@@H]2c1ccccc1C(F)(F)F` (stereo in doubt) [Compound 72, 7,7-dimethyl-3-(trifluoromethyl)-4-(2-(trifluoromethyl)phenyl)-6,7,8,9-tetrahydro-2H-pyrazolo[3,4-b]quinolin-5(4H)-one], the EC50 in experiment [1] (setting [5]) amounted to 1.49 µM; in experiment [2] (Homo sapiens, SH-SY5Y) it was 0.426 µM.

As to `CC1(C)CC(=O)C2=C(C1)Nc1n[nH]c(C(F)(F)F)c1[C@H]2c1ccccc1C(F)(F)F` (stereo in doubt) [Compound 73, 7,7-dimethyl-3-(trifluoromethyl)-4-(2-(trifluoromethyl)phenyl)-6,7,8,9-tetrahydro-2H-pyrazolo[3,4-b]quinolin-5(4H)-one], the EC50 in experiment [1] (setting [5]) is more than 25 µM; in experiment [2] (Homo sapiens, SH-SY5Y), 22 µM.

On to `Cc1[nH]nc2c1C(c1ccccc1Cl)C1=C(CC(C)(C)CC1=O)N2` (stereo not drawn) [Compound 13, 4-(2-chlorophenyl)-3,7,7-trimethyl-6,7,8,9-tetrahydro-2H-pyrazolo[3,4-b]quinolin-5(4H)-one], for which the EC50 in experiment [1] (setting [5]) amounted to 24 µM; in experiment [3] (Homo sapiens, U2OS), 41.1 µM; in experiment [2] (Homo sapiens, SH-SY5Y), 2.49 µM.

In the case of `Cc1[nH]nc2c1C(c1ccccc1Br)C1=C(CC(C)(C)CC1=O)N2` (stereo not drawn) [Compound 16], the “ADP Glo Assay GSK3β vs CDK5 fold selectivity” value on CDK5/p25 turned out to be 14X.

`Cc1cccc(C2C3=C(CC(C)(C)CC3=O)Nc3n[nH]c(C)c32)c1` (stereo not drawn) [Compound 18, 3,7,7-trimethyl-4-(m-tolyl)-6,7,8,9-tetrahydro-2H-pyrazolo[3,4-b]quinolin-5(4H)-one]: the EC50 in experiment [1] (setting [5]) was more than 25 µM; in experiment [3] (Homo sapiens, U2OS) it was more than 50 µM.

Turning to `COc1ccccc1[C@H]1C2=C(CC(C)(C)CC2=O)Nc2n[nH]c(C)c21` [Compound 21, 4-(2-methoxyphenyl)-3,7,7-trimethyl-6,7,8,9-tetrahydro-1H-pyrazolo[3,4-b]quinolin-5(4H)-one], the EC50 in experiment [1] (setting [5]) is more than 25 µM; in experiment [2] (Homo sapiens, SH-SY5Y), more than 30 µM.

On to `CSc1ccccc1C1C2=C(CC(C)(C)CC2=O)Nc2n[nH]c(C)c21` (stereo not drawn) [Compound 25, 3,7,7-trimethyl-4-(2-(methylthio)phenyl)-6,7,8,9-tetrahydro-2H-pyrazolo[3,4-b]quinolin-5(4H)-one], for which the EC50 in experiment [1] (setting [5]) came to 4.34 µM; in experiment [3] (Homo sapiens, U2OS), 10.9 µM; in experiment [2] (Homo sapiens, SH-SY5Y), 2.85 µM.

With `Cc1[nH]nc2c1C(c1cccc(C(F)(F)F)c1)C1=C(CC(C)(C)CC1=O)N2` (stereo not drawn) [Compound 30, 3,7,7-trimethyl-4-(3-(trifluoromethyl)phenyl)-6,7,8,9-tetrahydro-2H-pyrazolo[3,4-b]quinolin-5(4H)-one], the EC50 in experiment [1] (setting [5]) turned out to be 7.67 µM; in experiment [3] (Homo sapiens, U2OS) it was 11.2 µM; in experiment [2] (Homo sapiens, SH-SY5Y), 4.68 µM.

For the compound `Cc1[nH]nc2c1C(c1ccc(C(F)(F)F)cc1)C1=C(CC(C)(C)CC1=O)N2` (stereo not drawn) [Compound 31, 3,7,7-trimethyl-4-(4-(trifluoromethyl)phenyl)-6,7,8,9-tetrahydro-2H-pyrazolo[3,4-b]quinolin-5(4H)-one], the EC50 is more than 25 µM in experiment [1] (setting [5]) and more than 50 µM in experiment [3] (Homo sapiens, U2OS).

As to `Cc1[nH]nc2c1C(c1cccc(C#N)c1)C1=C(CC(C)(C)CC1=O)N2` (stereo not drawn) [Compound 33, 3-(3,7,7-trimethyl-5-oxo-4,5,6,7,8,9-hexahydro-2H-pyrazolo[3,4-b]quinolin-4-yl)benzonitrile], the EC50 in experiment [1] (setting [5]) worked out at 5.16 µM; in experiment [3] (Homo sapiens, U2OS) it was 12 µM; in experiment [2] (Homo sapiens, SH-SY5Y), 2.5 µM.

With `Cc1[nH]nc2c1C(c1ccc(F)cc1Cl)C1=C(CC(C)(C)CC1=O)N2` (stereo not drawn) [Compound 35, 4-(2-chloro-4-fluorophenyl)-3,7,7-trimethyl-6,7,8,9-tetrahydro-1H-pyrazolo[3,4-b]quinolin-5(4H)-one], the EC50 in experiment [1] (setting [5]) was more than 25 µM.

For `Cc1[nH]nc2c1C(c1ccccn1)C1=C(CC(C)(C)CC1=O)N2` (stereo not drawn) [Compound 36, 3,7,7-trimethyl-4-(pyridin-2-yl)-6,7,8,9-tetrahydro-1H-pyrazolo[3,4-b]quinolin-5(4H)-one], the EC50 in experiment [1] (setting [5]) is more than 25 µM.

In the case of `Cc1[nH]nc2c1C(c1cccnc1)C1=C(CC(C)(C)CC1=O)N2` (stereo not drawn) [Compound 37, 3,7,7-trimethyl-4-(pyridin-3-yl)-6,7,8,9-tetrahydro-1H-pyrazolo[3,4-b]quinolin-5(4H)-one], the EC50 in experiment [1] (setting [5]) was more than 25 µM.

As for `Cc1[nH]nc2c1C(c1ccncc1)C1=C(CC(C)(C)CC1=O)N2` (stereo not drawn) [Compound 38, 3,7,7-trimethyl-4-(pyridin-4-yl)-6,7,8,9-tetrahydro-1H-pyrazolo[3,4-b]quinolin-5(4H)-one], the EC50 in experiment [1] (setting [6]) is more than 25 µM.

With `Cc1[nH]nc2c1C(c1ccc(Br)cn1)C1=C(CC(C)(C)CC1=O)N2` (stereo not drawn) [Compound 39, 4-(5-bromopyridin-2-yl)-3,7,7-trimethyl-6,7,8,9-tetrahydro-1H-pyrazolo[3,4-b]quinolin-5(4H)-one], the EC50 in experiment [1] (setting [5]) was more than 25 µM.

Turning to `Cc1[nH]nc2c1C(c1ccn[nH]1)C1=C(CC(C)(C)CC1=O)N2` (stereo not drawn) [Compound 40, 3,7,7-trimethyl-4-(1H-pyrazol-5-yl)-6,7,8,9-tetrahydro-1H-pyrazolo[3,4-b]quinolin-5(4H)-one], the EC50 in experiment [1] (setting [5]) was more than 25 µM.

Turning to `Cc1[nH]nc2c1C(C1CC1)C1=C(CC(C)(C)CC1=O)N2` (stereo not drawn) [Compound 43], the results for the EC50 in experiment [4], in experiment [3] and in experiment [2] were more than 25 µM, more than 50 µM and more than 30 µM, respectively.

In the case of `Cc1[nH]nc2c1C(C1CCCCC1)C1=C(CC(C)(C)CC1=O)N2` (stereo not drawn) [Compound 44], the EC50 was more than 25 µM in experiment [4] and more than 50 µM in experiment [3].

For `COc1ccccc1C1C2=C(CC(C)(C)CC2=O)Nc2n[nH]c(C(C)(C)C)c21` (stereo not drawn) [Compound 50], the results for the EC50 in experiment [4] and in experiment [3] were more than 25 µM and more than 50 µM, respectively.

In the case of `COc1ccccc1C1C2=C(CC(C)(C)CC2=O)Nc2n[nH]c(-c3ccccc3)c21` (stereo not drawn) [Compound 51], the EC50 was more than 25 µM in experiment [4] and more than 50 µM in experiment [3].

Regarding `COc1ccccc1[C@H]1C2=C(CC(C)(C)CC2=O)Nc2n[nH]c(C(F)(F)F)c21` [Compound 55, (S)-4-(2-methoxyphenyl)-7,7-dimethyl-3-(trifluoromethyl)-6,7,8,9-tetrahydro-2H-pyrazolo[3,4-b]quinolin-5(4H)-one], the EC50 in experiment [1] (setting [6]) was more than 25 µM; in experiment [3] (Homo sapiens, U2OS), more than 50 µM; in experiment [2] (Homo sapiens), more than 30 µM.

Consider `COc1ccccc1C1C2=C(CC3(CCCCC3)CC2=O)Nc2n[nH]c(C)c21` (stereo not drawn) [Compound 56], for which the EC50 in experiment [4] is more than 25 µM; in experiment [3], more than 50 µM.

Take `CC1(C)CC(=O)C2=C(C1)Nc1n[nH]c(C(F)(F)F)c1C2c1ccccc1F` (stereo not drawn) [Compound 58]: in experiment [4], the EC50 is more than 25 µM.

As to `CC1(C)CC(=O)C2=C(C1)Nc1n[nH]c(C(F)(F)F)c1C2c1cc(F)ccc1F` (stereo not drawn) [Compound 60], the EC50 in experiment [4] was more than 25 µM.

Consider `CC1(C)CC(=O)C2=C(C1)Nc1n[nH]c(C(F)(F)F)c1C2c1cc(F)ccc1OC(F)(F)F` (stereo not drawn) [Compound 61], for which the EC50 in experiment [4] is more than 25 µM.

In the case of `CC1(C)CC(=O)C2=C(C1)Nc1n[nH]c(C(F)(F)F)c1C2c1cc(F)ccc1C(F)(F)F` (stereo not drawn) [Compound 64], the EC50 in experiment [4] is more than 25 µM.

As for `Cc1[nH]nc2c1C(C)(c1ccccc1)C1=C(CC(C)(C)CC1=O)N2` (stereo not drawn) [Compound 67, 3,4,7,7-tetramethyl-4-phenyl-6,7,8,9-tetrahydro-2H-pyrazolo[3,4-b]quinolin-5(4H)-one], the EC50 in experiment [1] (setting [5]) is more than 25 µM.

Turning to `Cc1[nH]nc2c1C(c1ccccc1)(C(F)(F)F)C1=C(CC(C)(C)CC1=O)N2` (stereo not drawn) [Compound 92, 1,6,6-trimethyl-9-phenyl-9-(trifluoromethyl)-5,6,7,9-tetrahydro-2H-pyrazolo[3,4-b]quinolin-8(4H)-one], in experiment [2] (Homo sapiens, SH-SY5Y), the EC50 was 20.4 µM.

In the case of `COC(=O)c1[nH]nc2c1C(C)(c1ccccc1)C1=C(CC(C)(C)CC1=O)N2` (stereo not drawn) [Compound 104], in experiment [2] (Homo sapiens, SH-SY5Y), the EC50 amounted to 4.48 µM.

As to `CC1(C)CC(=O)C2=C(C1)Nc1n[nH]c(Cl)c1C2(C)c1ccccc1` (stereo not drawn) [Compound 110], the EC50 in experiment [2] (Homo sapiens, SH-SY5Y) was found to be 4.55 µM.

In the case of `CC1(C)CC(=O)C2=C(C1)Nc1n[nH]c(Br)c1C2(C)c1ccccc1` (stereo not drawn) [Compound 111], the EC50 in experiment [2] (Homo sapiens, SH-SY5Y) worked out at 2.98 µM.
